Measured values as given in publication PMC7377239, “Cardiovascular Effects of Polychlorinated Biphenyls and Their Major Metabolites” (Environmental Health Perspectives, 2020).
Where two headings read alike, the source gives them in different places.

System: iCell cardiomyocytes (human iPSC-derived cardiomyocytes)
Test: Intracellular Ca2+ flux / beating parameters in iCell cardiomyocytes (FLIPR tetra), 90 min or 24 h
Assay type: cell-based
Settings: 0.00 µM = 100.00; for activity at 0.01 µM / activity at 0.1 µM / activity at 1 µM / activity at 10 µM / activity at 100 µM: Homo sapiens, Cardiomyocyte
How it was run: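 PODs were defined as the concentration crossing one SD of the vehicle-control means (0.5% DMSO) on four-parameter logistic fits of Ca2+ trace metrics (peak height, frequency, peak-spacing CV, decay/rise ratio). Traces came from 100 s, 8 Hz FLIPR reads at 37 °C on calcium-dye-loaded iCell cardiomyocytes. Before reading, cells were treated for 90 min or 24 h from 5× chemical plates spanning 0.05–500 µM, in triplicate.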

In the case of `Clc1ccc(Cl)c(-c2c(Cl)ccc(Cl)c2Cl)c1Cl` [(+)-PCB 136, 2,2′,3,3′,6,6′-hexachlorobiphenyl], the cm.amp.avg.24hrs (0.01 µM, 24hrs) is reported as 54.01, the cm.amp.cv.24hrs (0.01 µM, 24hrs) is reported as 158.80 and the cm.amp.avg.24hrs (0.10 µM, 24hrs) is reported as 107.99. It also gave a cm.amp.cv.24hrs (0.10 µM, 24hrs) of 72.89, a cm.bpm.24hrs (0.10 µM, 24hrs) of 96.42 and a cm.decay.rise.24hrs (0.10 µM, 24hrs) of 106.79. For the same compound, the cm.spacing.cv.24hrs (0.10 µM, 24hrs) was 105.08, the cm.amp.cv.24hrs (1.00 µM, 24hrs) was 92.90 and the cm.bpm.24hrs (1.00 µM, 24hrs) was 94.51. It also gave a cm.decay.rise.24hrs (1.00 µM, 24hrs) of 114.76, a cm.spacing.cv.24hrs (1.00 µM, 24hrs) of 110.09 and a cm.bpm.90min (10.00 µM, 90min) of 82.76. The cm.decay.rise.90min (10.00 µM, 90min) was 115.77, the cm.amp.avg.24hrs (10.00 µM, 24hrs) was 0.00 and the cm.amp.cv.24hrs (10.00 µM, 24hrs) was 0.00. The cm.bpm.24hrs (10.00 µM, 24hrs) was 0.00, the cm.decay.rise.24hrs (10.00 µM, 24hrs) was 0.00 and the cm.spacing.cv.24hrs (10.00 µM, 24hrs) was 0.00. It also gave an activity at 0.01 µM (1.5 h, 0.01 µM, 90min, read-out: cm.amp.avg.90min) of 106%, an activity at 0.01 µM (1.5 h, 0.01 µM, 90min, read-out: cm.amp.cv.90min) of 96.9% and an activity at 0.01 µM (1.5 h, 0.01 µM, 90min, read-out: cm.bpm.90min) of 97.8%. The activity at 0.01 µM (1.5 h, 0.01 µM, 90min, read-out: cm.decay.rise.90min) was 99%, the activity at 0.01 µM (1.5 h, 0.01 µM, 90min, read-out: cm.spacing.cv.90min) was 101% and the activity at 0.1 µM (1.5 h, 0.10 µM, 90min, read-out: cm.amp.avg.90min) was 107%. The activity at 0.1 µM (1.5 h, 0.10 µM, 90min, read-out: cm.amp.cv.90min) was 112%, the activity at 0.1 µM (1.5 h, 0.10 µM, 90min, read-out: cm.bpm.90min) was 96.5% and the activity at 0.1 µM (1.5 h, 0.10 µM, 90min, read-out: cm.decay.rise.90min) was 99.7%. It also gave an activity at 0.1 µM (1.5 h, 0.10 µM, 90min, read-out: cm.spacing.cv.90min) of 115%, an activity at 1 µM (1.5 h, 1.00 µM, 90min, read-out: cm.amp.avg.90min) of 107% and an activity at 1 µM (1.5 h, 1.00 µM, 90min, read-out: cm.amp.cv.90min) of 120%. The activity at 1 µM (1.5 h, 1.00 µM, 90min, read-out: cm.bpm.90min) was 87.8%, the activity at 1 µM (1.5 h, 1.00 µM, 90min, read-out: cm.decay.rise.90min) was 107% and the activity at 1 µM (1.5 h, 1.00 µM, 90min, read-out: cm.spacing.cv.90min) was 107%. For the same compound, the activity at 10 µM (1.5 h, 10.00 µM, 90min, read-out: cm.amp.avg.90min) was 94.4%, the activity at 10 µM (1.5 h, 10.00 µM, 90min, read-out: cm.amp.cv.90min) was 114% and the activity at 10 µM (1.5 h, 10.00 µM, 90min, read-out: cm.spacing.cv.90min) was 118%. It also gave an activity at 100 µM (1.5 h, 90min, read-out: cm.amp.avg.90min) of 0%, an activity at 100 µM (1.5 h, 90min, read-out: cm.amp.cv.90min) of 0% and an activity at 100 µM (1.5 h, 90min, read-out: cm.bpm.90min) of 0%. The activity at 100 µM (1.5 h, 90min, read-out: cm.decay.rise.90min) was 0%, the activity at 100 µM (1.5 h, 90min, read-out: cm.spacing.cv.90min) was 0% and the activity at 0.01 µM (24 h, 0.01 µM, 24hrs, read-out: cm.bpm.24hrs) was 105%. The activity at 0.01 µM (24 h, 0.01 µM, 24hrs, read-out: cm.decay.rise.24hrs) was 93.3%, the activity at 0.01 µM (24 h, 0.01 µM, 24hrs, read-out: cm.spacing.cv.24hrs) was 104% and the activity at 1 µM (24 h, 1.00 µM, 24hrs, read-out: cm.amp.avg.24hrs) was 83.3%. For the same compound, the activity at 100 µM (24 h, 24hrs, read-out: cm.amp.avg.24hrs) was 0%, the activity at 100 µM (24 h, 24hrs, read-out: cm.amp.cv.24hrs) was 0% and the activity at 100 µM (24 h, 24hrs, read-out: cm.bpm.24hrs) was 0%. For the same compound, the activity at 100 µM (24 h, 24hrs, read-out: cm.decay.rise.24hrs) was 0% and the activity at 100 µM (24 h, 24hrs, read-out: cm.spacing.cv.24hrs) was 0%.
